Laboratory results reported in ChEMBL document CHEMBL3044779, “The action of herbicides on fatty acid biosynthesis and elongation in barley and cucumber” (Pest Manag Sci, 2010).
Activity calls are given as the source filed them. The rule behind the calls is not given here.

Columns and labels:
Cucumis sativus [1] = experiment: Inhibition of fatty acid synthesis in Cucumis sativus (cucumber) using [14C]acetate assessed as [14C]-labeled 16C fatty acid level at 7 uM after 3 hr by liquid scintillation counting (reference value: 27.6 +/- 5.1%); assay type: functional; set-up: scale not given: the % may be the effect or the level left
Hordeum vulgare [2] = experiment: Inhibition of fatty acid synthesis in Hordeum vulgare (barley) using [14C]acetate assessed as [14C]-labeled 18C fatty acid level at 7 uM after 3 hr by liquid scintillation counting (reference value: 57 +/- 0.9%); assay type: functional; set-up: scale not given: the % may be the effect or the level left
Cucumis sativus [3] = experiment: Inhibition of fatty acid synthesis in Cucumis sativus (cucumber) using [14C]malonate assessed as reduction in [14C]-labeled 24C fatty acid level at 70 uM after 3 hr by liquid scintillation counting relative to control; assay type: functional, organism-based
Hordeum vulgare [4] = experiment: Inhibition of fatty acid synthesis in Hordeum vulgare (barley) using [14C]malonate assessed as [14C]-labeled 16C fatty acid level at 70 uM after 3 hr by liquid scintillation counting (reference value: 3.3 +/- 0.9%); assay type: functional; set-up: scale not given: the % may be the effect or the level left
Hordeum vulgare [5] = experiment: Inhibition of fatty acid synthesis in Hordeum vulgare (barley) assessed as inhibition of [14C]malonate incoporation in total fatty acids at 70 uM measured as total disintegration per g of fresh weight after 3 hr by liquid scintillation counting (reference value: 5.2 +/- 0.9 dpm x 10^6 g'1 fresh wt); assay type: functional
Hordeum vulgare [6] = experiment: Inhibition of fatty acid synthesis in Hordeum vulgare (barley) using [14C]malonate assessed as [14C]-labeled 22C fatty acid level at 70 uM after 3 hr by liquid scintillation counting (reference value: 34.7 +/- 2.4%); assay type: functional; set-up: scale not given: the % may be the effect or the level left
Cucumis sativus [7] = experiment: Inhibition of fatty acid synthesis in Cucumis sativus (cucumber) using [14C]malonate assessed as [14C]-labeled 20C fatty acid level at 70 uM after 3 hr by liquid scintillation counting (reference value: 11.7 +/- 2%); assay type: functional; set-up: scale not given: the % may be the effect or the level left
Cucumis sativus [8] = experiment: Inhibition of fatty acid synthesis in Cucumis sativus (cucumber) using [14C]acetate assessed as [14C]-labeled 18C fatty acid level at 7 uM after 3 hr by liquid scintillation counting (reference value: 33.5 +/- 1.5%); assay type: functional; set-up: scale not given: the % may be the effect or the level left
Hordeum vulgare [9] = experiment: Inhibition of fatty acid synthesis in Hordeum vulgare (barley) using [14C]acetate assessed as [14C]-labeled 16C fatty acid level at 7 uM after 3 hr by liquid scintillation counting (reference value: 30.6 +/- 0.2%); assay type: functional; set-up: scale not given: the % may be the effect or the level left
Cucumis sativus [10] = experiment: Inhibition of fatty acid synthesis in Cucumis sativus (cucumber) using [14C]malonate assessed as [14C]-labeled 16C fatty acid level at 70 uM after 3 hr by liquid scintillation counting (reference value: 5.1 +/- 0.9%); assay type: functional; set-up: scale not given: the % may be the effect or the level left
Hordeum vulgare [11] = experiment: Inhibition of fatty acid synthesis in Hordeum vulgare (barley) using [14C]malonate assessed as reduction in [14C]-labeled 20C fatty acid level at 70 uM after 3 hr by liquid scintillation counting relative to control; assay type: functional, organism-based
Cucumis sativus [12] = experiment: Inhibition of fatty acid synthesis in […] using [14C]acetate assessed as reduction in [14C]-labeled 22C fatty acid level at 7 uM after 3 hr by liquid scintillation counting; assay type: functional, organism-based
Cucumis sativus [13] = experiment: (§1) Inhibition of fatty acid synthesis in Cucumis sativus (cucumber) assessed as inhibition of [14C]acetate incoporation in total fatty acids at 7 uM measured as total disintegration per g of fresh weight after 3 hr by liquid scintillation counting (reference value: 4.4 +/- 1 dpm x 10^6 g'1 fresh wt); assay type: functional
Cucumis sativus [14] = experiment: Inhibition of fatty acid synthesis in Cucumis sativus (cucumber) using [14C]acetate assessed as reduction in [14C]-labeled 20C fatty acid level at 7 uM after 3 hr by liquid scintillation counting relative to control; assay type: functional, organism-based
Cucumis sativus [15] = experiment: Inhibition of fatty acid synthesis in Cucumis sativus (cucumber) using [14C]malonate assessed as reduction in [14C]-labeled 22C fatty acid level at 70 uM after 3 hr by liquid scintillation counting relative to control; assay type: functional, organism-based
Cucumis sativus [16] = experiment: as §1, with “of [14C]malonate” for “of [14C]acetate”, “at 70” for “at 7”, “value: 16.3” for “value: 4.4”, “+/- 1.1” for “+/- 1”; assay type: functional
Cucumis sativus [17] = experiment: Inhibition of fatty acid synthesis in Cucumis sativus (cucumber) using [14C]malonate assessed as [14C]-labeled 18C fatty acid level at 70 uM after 3 hr by liquid scintillation counting (reference value: 14.3 +/- 2%); assay type: functional; set-up: scale not given: the % may be the effect or the level left
Hordeum vulgare [18] = experiment: Inhibition of fatty acid synthesis in Hordeum vulgare (barley) using [14C]acetate assessed as [14C]-labeled 20C fatty acid level at 7 uM after 3 hr by liquid scintillation counting (reference value: 2.1 +/- 0.4%); assay type: functional; set-up: scale not given: the % may be the effect or the level left
Hordeum vulgare [19] = experiment: Inhibition of fatty acid synthesis in Hordeum vulgare (barley) using [14C]malonate assessed as reduction in [14C]-labeled 24C fatty acid level at 70 uM after 3 hr by liquid scintillation counting relative to control; assay type: functional, organism-based
Hordeum vulgare [20] = experiment: Inhibition of fatty acid synthesis in Hordeum vulgare (barley) using [14C]acetate assessed as reduction in [14C]-labeled 24C fatty acid level at 7 uM after 3 hr by liquid scintillation counting; assay type: functional, organism-based
Hordeum vulgare [21] = experiment: Inhibition of fatty acid synthesis in Hordeum vulgare (barley) using [14C]malonate assessed as reduction in [14C]-labeled 26C fatty acid level at 70 uM after 3 hr by liquid scintillation counting relative to control; assay type: functional, organism-based
Hordeum vulgare [22] = experiment: Inhibition of fatty acid synthesis in Hordeum vulgare (barley) using [14C]malonate assessed as [14C]-labeled 18C fatty acid level at 70 uM after 3 hr by liquid scintillation counting (reference value: 14.4 +/- 6.3%); assay type: functional; set-up: scale not given: the % may be the effect or the level left
Hordeum vulgare [23] = experiment: Inhibition of fatty acid synthesis in Hordeum vulgare (barley) assessed as inhibition of [14C]acetate incoporation in total fatty acids at 7 uM measured as total disintegration per g of fresh weight after 3 hr by liquid scintillation counting (reference value: 5.8 +/- 1.6 dpm x 10^6 g'1 fresh wt); assay type: functional
Hordeum vulgare [24] = experiment: Inhibition of fatty acid synthesis in Hordeum vulgare (barley) using [14C]acetate assessed as reduction in [14C]-labeled 22C fatty acid level at 7 uM after 3 hr by liquid scintillation counting; assay type: functional, organism-based

CCN(CC)C(=O)n1cnc(S(=O)(=O)c2c(C)cc(C)cc2C)n1 [CAFENSTROLE]
Activity (Cucumis sativus [1]): 60.4% | Activity (Hordeum vulgare [2]): 66.1% | inhibition (Cucumis sativus [3]): Active | Activity (Hordeum vulgare [4]): 10% | Activity (Hordeum vulgare [5]): 2.7 ×10⁶ dpm | Activity (Hordeum vulgare [6]): 14.7% | Activity (Cucumis sativus [7]): 8.4% | Activity (Cucumis sativus [8]): 39.6% | Activity (Hordeum vulgare [9]): 32.4% | Activity (Cucumis sativus [10]): 20.4% | inhibition (Hordeum vulgare [11]): Active | inhibition (Cucumis sativus [12]): Active | Activity (Cucumis sativus [13]): 2.5 ×10⁶ dpm | inhibition (Cucumis sativus [14]): Active | inhibition (Cucumis sativus [15]): Active | Activity (Cucumis sativus [16]): 9.4 ×10⁶ dpm | Activity (Cucumis sativus [17]): 71.3% | Activity (Hordeum vulgare [18]): 2.2% | inhibition (Hordeum vulgare [19]): Active | inhibition (Hordeum vulgare [20]): Active | inhibition (Hordeum vulgare [21]): Active | Activity (Hordeum vulgare [22]): 65.4% | Activity (Hordeum vulgare [23]): 5.1 ×10⁶ dpm | inhibition (Hordeum vulgare [24]): Active
